Test results from article PMC5342526, “Identification of Bisindolylmaleimide IX as a potential agent to treat drug-resistant BCR-ABL positive leukemia” (Oncotarget, 2016).
Where two headings read alike, the source gives them in different places.

Experiments:
[1] = target: Jak2 (Homo sapiens, UniProt O60674); experiment: Z'-LYTE in vitro kinase assay; type: biochemical; settings: mean ±SEM
[2] = target: T1, IKKβ (Homo sapiens, UniProt O14920); experiment: Z'-LYTE in vitro kinase assay; type: biochemical; settings: mean ±SEM
T1 construct: made in house; host or cells: Escherichia coli BL21-Codon Plus (DE3)
T1 sequence (O14920 whole entry, species assumed): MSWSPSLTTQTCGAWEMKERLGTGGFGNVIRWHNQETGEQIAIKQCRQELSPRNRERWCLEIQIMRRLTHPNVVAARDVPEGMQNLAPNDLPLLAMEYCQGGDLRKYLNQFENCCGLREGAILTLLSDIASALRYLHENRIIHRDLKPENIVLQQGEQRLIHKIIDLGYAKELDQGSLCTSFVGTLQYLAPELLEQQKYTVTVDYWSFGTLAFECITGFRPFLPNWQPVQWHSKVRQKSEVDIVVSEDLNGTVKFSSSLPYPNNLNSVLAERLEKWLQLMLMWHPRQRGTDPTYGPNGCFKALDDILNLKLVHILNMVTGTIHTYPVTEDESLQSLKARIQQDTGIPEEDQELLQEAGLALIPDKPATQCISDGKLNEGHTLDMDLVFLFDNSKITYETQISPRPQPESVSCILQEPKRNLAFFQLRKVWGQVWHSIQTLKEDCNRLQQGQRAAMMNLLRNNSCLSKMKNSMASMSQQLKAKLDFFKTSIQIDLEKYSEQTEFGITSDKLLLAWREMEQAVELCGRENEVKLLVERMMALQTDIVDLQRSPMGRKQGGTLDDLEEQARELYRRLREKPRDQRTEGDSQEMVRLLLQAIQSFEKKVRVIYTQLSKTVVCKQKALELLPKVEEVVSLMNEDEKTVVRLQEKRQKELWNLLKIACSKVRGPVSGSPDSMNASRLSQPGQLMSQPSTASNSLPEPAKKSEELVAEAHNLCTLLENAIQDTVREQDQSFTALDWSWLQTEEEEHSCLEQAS
Description: (§1) The recombinant Auror, B-Raf, IKKβ, SYK, BCR-Abl, MEK1 and Erk1 proteins were expressed in Escherichia coli strain BL21-Codon Plus (DE3), purified by Ni-NTA Agarose (QIAGEN). The kinase assays were carried out with the Z'-LYTETM Kinase Assay kit using Ser/Thr3 Peptide substrate (Invitrogen). The reactions were carried out according to the Z-LYTE protocol and the results were read on an EnVision plate reader. All reactions were carried out in triplicate. Data were expressed as mean ±SEM.

[3] = target: T2, MEK1 (Homo sapiens, UniProt Q02750); experiment: Z'-LYTE in vitro kinase assay; type: biochemical
T2 construct: made in house; host or cells: Escherichia coli BL21-Codon Plus (DE3)
T2 sequence (Q02750 whole entry, species assumed): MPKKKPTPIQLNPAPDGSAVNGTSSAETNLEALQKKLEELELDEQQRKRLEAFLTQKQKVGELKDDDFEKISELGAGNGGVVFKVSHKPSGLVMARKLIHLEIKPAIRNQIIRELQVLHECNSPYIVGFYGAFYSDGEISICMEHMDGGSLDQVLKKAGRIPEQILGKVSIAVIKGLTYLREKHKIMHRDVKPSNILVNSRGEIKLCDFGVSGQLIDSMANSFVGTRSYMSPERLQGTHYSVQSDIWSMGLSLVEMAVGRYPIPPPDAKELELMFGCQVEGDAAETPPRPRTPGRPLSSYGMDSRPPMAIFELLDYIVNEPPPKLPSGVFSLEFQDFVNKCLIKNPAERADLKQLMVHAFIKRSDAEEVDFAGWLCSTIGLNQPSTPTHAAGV
Description: as §1

[4] = tested on: γH2AX foci in MEFs; experiment: γH2AX DNA damage foci, immunofluorescent staining; type: cell-based, mouse; settings: 2.5 μM, 4 hrs
Description: MEFs or HCT116 cells were cultured on cover slips while Baf3 cells were cultured on slides coated by 0.1mg/ml poly-L-lysine, washed with phosphate-buffered saline (PBS) twice, and then fixed in 4% paraformaldehyde (PFA), which were permeabilized with 0.1% Triton X in PBS for 30 minutes at room temperature. The primary antibodies were diluted in PBS with 1% BSA (1:200). The slides were blocked (1% BSA in PBS) for 60 minutes at room temperature, incubated with primary antibodies overnight at 4°C, and followed by secondary antibody incubation for 60 min at RT. The slides were then mounted and observed under confocal microscope (Leica, Germany). Antibodies against γH2AX were from Bethyl Corporation.

[5] = tested on: DNA topoisomerase; experiment: DNA relaxation assay with extracts of treated MEFs; type: cell-based, mouse; settings: supercoiled pBluescript plasmid DNA as template
Description: Bisindolylmaleimide IX and other derivatives were added to MEF cultures and 24 hrs later, the cells were washed with PBS and harvested in TNE buffer. The control and Bisindolylmaleimide IX-treated cell extracts were directly used to test the topoisomerase activity using a kit from Topogen (Port Orange, USA) following the manufacturer's protocol, or pBluescript DNA as a template. The in vitro incubation lasted 30 min at room temperature. A 2% agarose gel was run to analyze DNA unwinding (Topogen) or 0.8% gel for pBluescript DNA.

[6] = tested on: MEFs and HCT116 cells; experiment: Activation of Atm and Chk2 (DNA damage response), western blot; type: cell-based; settings: 4 hrs, phosphorylation of Atm and Chk2
[7] = Precipitation in cell cultures; type: physicochemical
[8] = tested on: Erk in BCR-ABL-expressing BaF3 cells; experiment: Erk activation, western blot; type: cell-based, murine; settings: BCR-ABL-expressing BaF3 cells but not control cells, 4 hrs
Description: Activation and expression of Erk, Mek1, and Raf were determined by western blot. B. Inhibition of Erk decreased the cell survival rates in BaF3 cells expressing BCR-ABL compared to control cells. […] C. […] N=3. Right panel: Western blot results showing that B-Raf was knocked down in these cells.

[9] = tested on: intravenously injected BCR-ABL positive BaF3 cells; experiment: Lifespan of nude mice after intravenous cell injection; type: in vivo, mouse; settings: 2 or 4 mg/kg every day
Description: (§2) For solid tumor models, the mice were injected with 4 mg / kg of Bisindolylmaleimide IX or solvent. The length (L) and width (W) of the tumor were measured by a digital caliper and expressed as tumor volume (0.5 L×W^2, mm^3). The body weight and the lifespan of the mice with intravenous injection of BaF3 cells were monitored every day. For B-Raf knockdown, lentivirus-mediated expressing shRNA against B-Raf was used.

[10] = tested on: intravenously injected T315I BCR-ABL positive BaF3 cells; experiment: as above; type: in vivo, mouse; settings: 2 or 4 mg/kg every day
Description: as §2

[11] = tested on: HCT116 cells; experiment: Cell cycle analysis by FACS; type: cell-based, human; settings: HCT116, 24 hrs
Description: Cells were seeded on 35-mm dishes and cultured for 24 hrs, reaching 60–70% confluency. The cells were treated with different concentrations of Bisindolylmaleimide IX for 24 or 48 hrs, harvested by trypsinization, resuspended in 200 μl PBS, and fixed in 100% ethanol overnight at 4°C. The fixed cells were pelleted by centrifugation, resuspended in 800 μl PBS containing ribonuclease A (100 μg/ml) and incubated for 30 min at 37°C. Then 10 μl propidium iodide (PI, 4 mg/ml PBS) were added to the samples, which were assessed on a FACSCalibur flow cytometer using Cell Quest software (BD Bioscience).

[12] = tested on: BCR-ABL BaF3 cells; experiment: cells; settings: Mus musculus, BaF3, 24 h, read-out: IC50, cell survival
[13] = tested on: primary MEFs; experiment: Wst-1 cell survival assay
Description: (§3) We then evaluated the cytotoxic effect of Bisindolylmaleimide IX in MEFs and HCT116 cells. Different doses of Bisindolylmaleimide IX were applied to the cell cultures and cell survival rates and IC50 were determined with Wst-1 assay.
(§4) To measure cell survival rates after Bisindolylmaleimide IX treatment, cells were plated at 1×10^4 in 96 well plates and cultured for overnight, which were then treated with Bisindolylmaleimide IX for 48 hrs. Cell proliferation reagent WST-1 (Roche) was added to each well and was further incubated for 4 hrs at 37°C. The absorbance was measured against a control using microplate reader at 440 nm. The reference wavelength was 630 nm.

[14] = tested on: K562 cells; experiment: Wst-1 cell survival assay; settings: for IC50: Homo sapiens, read-out: IC50, cell survival
Description: as §3, §4

[15] = tested on: BCR-ABL MEF cells; experiment: Wst-1 cell survival assay; settings: Mus musculus, 24 h, read-out: IC50, cell survival
Description: as §3, §4

[16] = tested on: p53 in primary MEFs; experiment: p53 protein level by western blot (screen)
Description: Cells were lysed in TNEN buffer (50 mM Tris, 150 mM NaCl, 5 mM EDTA, 0.5% NP-40, and 0.1% Triton X-100) supplemented with 1 mM NaF, Na2VO3, 1 mM PMSF, and 1 μg/ml of aprotonin, leupeptin, and pepstatin A. Protein concentrations were determined using a Bio-Rad assay. Proteins were resolved by SDS-PAGE and transferred to polyvinylidene difluoride membranes (Millipore).

[17] = tested on: BCR-ABL in BaF3 cells; experiment: BCR-ABL activation in cells, anti-phospho-Tyr western blot; settings: 4 hrs
Description: BaF3 cells infected with empty retrovirus or retrovirus expressing BCR-ABL were treated with different doses of Bisindolylmaleimide IX for 4 hrs. Activation and expression of BCR-ABL were determined by western blot. Activation of BCR-ABL was determined by anti-phospho-Tyr antibodies.
Cells were lysed in TNEN buffer (50 mM Tris, 150 mM NaCl, 5 mM EDTA, 0.5% NP-40, and 0.1% Triton X-100) supplemented with 1 mM NaF, Na2VO3, 1 mM PMSF, and 1 μg/ml of aprotonin, leupeptin, and pepstatin A. Protein concentrations were determined using a Bio-Rad assay. Proteins were resolved by SDS-PAGE and transferred to polyvinylidene difluoride membranes (Millipore). […] Antibodies against p-Tyr were from Merck Millipore Corporation.

Sequence of Jak2 (O60674 whole entry, species assumed): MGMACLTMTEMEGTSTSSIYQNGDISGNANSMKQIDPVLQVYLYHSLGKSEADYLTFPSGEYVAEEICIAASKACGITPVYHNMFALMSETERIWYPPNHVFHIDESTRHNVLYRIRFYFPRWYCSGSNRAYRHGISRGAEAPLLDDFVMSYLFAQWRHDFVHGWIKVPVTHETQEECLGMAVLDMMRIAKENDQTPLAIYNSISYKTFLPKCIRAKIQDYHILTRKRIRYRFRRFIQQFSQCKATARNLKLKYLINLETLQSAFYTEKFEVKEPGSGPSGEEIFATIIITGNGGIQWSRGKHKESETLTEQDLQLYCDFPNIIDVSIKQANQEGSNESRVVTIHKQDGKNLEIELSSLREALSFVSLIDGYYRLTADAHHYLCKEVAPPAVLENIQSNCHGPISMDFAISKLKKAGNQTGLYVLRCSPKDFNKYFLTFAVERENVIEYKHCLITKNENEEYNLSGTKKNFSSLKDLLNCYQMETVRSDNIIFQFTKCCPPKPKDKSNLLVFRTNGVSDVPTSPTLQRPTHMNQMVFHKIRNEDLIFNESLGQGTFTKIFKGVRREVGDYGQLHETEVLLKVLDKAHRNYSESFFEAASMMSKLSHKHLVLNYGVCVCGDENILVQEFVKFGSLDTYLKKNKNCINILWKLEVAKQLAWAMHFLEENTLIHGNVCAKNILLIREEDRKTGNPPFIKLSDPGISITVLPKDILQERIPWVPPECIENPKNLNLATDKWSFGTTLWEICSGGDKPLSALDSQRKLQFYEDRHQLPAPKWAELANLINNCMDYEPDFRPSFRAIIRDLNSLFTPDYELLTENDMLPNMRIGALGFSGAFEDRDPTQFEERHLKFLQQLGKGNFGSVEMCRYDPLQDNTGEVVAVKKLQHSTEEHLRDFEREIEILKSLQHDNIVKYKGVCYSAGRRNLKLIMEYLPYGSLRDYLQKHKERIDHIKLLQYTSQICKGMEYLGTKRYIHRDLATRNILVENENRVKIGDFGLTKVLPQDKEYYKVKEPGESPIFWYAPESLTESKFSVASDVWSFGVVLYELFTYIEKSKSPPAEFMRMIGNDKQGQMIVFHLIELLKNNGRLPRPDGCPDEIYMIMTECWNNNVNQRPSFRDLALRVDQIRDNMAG

SMILES: CS(=O)(=O)O.Cn1cc(C2=C(c3cn(CCCSC(=N)N)c4ccccc34)C(=O)NC2=O)c2ccccc21 [Bisindolylmaleimide IX, 3-[1-[3-(Amidinothio)propyl]-3-indolyl]-4-(1-methyl-3-indolyl)-1H-pyrrole-2,5-dione methanesulfonate]
- IC50 [1]: 9.68 ± 0.79 µM
- IC50 [2]: 0.48 ± 0.005 µM
- IC50 [3]: > 45 µM
- γH2AX foci formation [4]: numerous foci positive for γH2AX
- DNA relaxation (topoisomerase) activity of extract from treated cells [5]: partially lost this activity
- lowest concentration able to activate the DNA damage response [6]: 1.0 µM
- concentrations at which the compound seemed to precipitate in cell cultures [7]: greater than 10 μM
- Erk activation [8]: inhibited Erk activation
- lifespan of the mice [9]: extend the lifespan
- lifespan of the mice [10]: extend the lifespan
- cell cycle profile [11]: increase in G2/M phase cells and a decrease in S phase cells
- IC50 [12]: 3.26 µM
- cytotoxicity (in words) ([13]; MEFs, compared to other genotoxic drugs such as Itu): modest cytotoxicity
- IC50 ([13]; Mus musculus, 24 h, read-out: IC50, cell survival): 3.83 µM
- IC50 ([14]; K562, 24 h): 3.72 µM
- IC50 ([14]; K562, 48 h): 3.48 µM
- cytotoxicity (in words) ([14]; K562, Wst-1): highly sensitive
- IC50 [15]: 3.46 µM
- p53 protein up-regulation [16]: up-regulate p53 at the protein levels
- inhibitory effect on BCR-ABL activity in vivo (in cells) [17]: negligible inhibitory effect
